Experimental findings from patent publication US20230293629A1, “METHODS FOR ATTENUATING RELEASE OF INFLAMMATORY MEDIATORS AND PEPTIDES USEFUL THEREIN” (BIOMARCK PHARMACEUTICALS LTD., priority 2006, published 2023) are described below.

For series [1], the system named is isolated canine neutrophils. Nature of the series: MPO secretion from isolated canine neutrophils stimulated with PMA + 8-Br-cGMP (FIG. 6, 10, 11). The class given is cell-based. Particulars: for MPO secretion: FIG. 6, 100 nM PMA and 10 μM 8-Br-cGMP. The source says: The invention also relates to a new method for blocking any cellular exocytotic secretory process, especially those releasing inflammatory mediators from granules contained within inflammatory cells, whose stimulatory pathways involve the protein kinase C (PKC) substrate MARCKS protein and release of contents from membrane-bound vesicles. Specifically, the inventors have shown that stimulated release of the inflammatory mediator myloperoxidase from human (FIG. 6) or canine (FIG. 7) neutrophils can be blocked in a concentration-dependent manner by the MANS peptide. […] 10 or 100 μM of a control peptide (RNS) has no effect on MPO secretion. In FIG. 7, isolated neutrophils were stimulated to secrete myloperoxidase (MPO) with 100 nM PMA and 10 μM 8-Br-cGMP. […] 10 or 100 μM of a control peptide (RNS) has no effect on MPO secretion. Thus, the peptide may be used therapeutically to block the release of mediators of inflammation secreted from infiltrating inflammatory cells in any tissues. Many of these released mediators are responsible for the extensive tissue damage observed in a variety of chronic inflammatory diseases (i.e., respiratory diseases such as asthma, chronic bronchitis and COPD, inflammatory bowel diseases including ulcerative colitis and Crohn's disease, autoimmune diseases, skin diseases such as rosacea, eczema; and severe acne, arthritic and pain syndromes such as rheumatoid arthritis and fibromyalgia). This invention may be useful for treating diseases such as arthritis, chronic bronchitis, COPD and cystic fibrosis. This invention is accordingly useful for the treatment in both human and animal diseases, especially those affecting equines, canines, felines, and other household pets.
FIGS. 8-12 show MPO secretion for both humans and canines. In all of these experiments, isolated neutrophils were stimulated with LPS at a concentration of 1×10^−6 M for 10 minutes at 37° C. prior to adding the stimuli as indicated in the figures. The LPS primes the cells so they can respond to a secretagogue.
Isolation of PMNs from canine blood—The steps involved in isolating PMN include collecting 10 ml ACD anticoagulated blood. Then layering 5 ml on 3.5 ml PMN isolation media while ensuring that the PMN isolation media (IM) was at room temperature (RI). Next, the blood was centrifuged at room temperature for 30′, 550×g at 1700 RPMs. The low lower white band was transferred into 15 ml conical centrifuge tube (CCFT). Next, 2V HESS with 10% fetal bovine serum […] was added and centrifuged at room temperature for 10′, 400×g at 1400 RPMs. The pellet was then resuspended in 5 ml 1-1ESS with PBS. The cell suspension was added to 50 ml CCFT containing 20 ml of ice cold 0.88% NH4Cl and inverted two to three times. The resulting product was centrifuged for 10′, 800×g at 2000 RPMs, then aspirated and resuspended in 5 ml HBSS with FBS. The prep was examined by counting and cytospin and preferably for whole blood, the cell number should be between 10^9-10^11 cells and for PMNs, cell number should be between 2-4×10^7 cells. See generally, Wang et al., J. Immunol., “Neutrophil-induced changes in the biomechanical properties of endothelial cells: roles of ICAM-1 and reactive oxygen species,” 6487-94 (2000).
MPO Colorimetric Enzyme Assay—Samples were assayed for MPO activity in 96 well round bottom microtiter plates using a sandwich ELISA kit (R & D Systems, Minneapolis, Minn.). […]

The nature of series [2]: Qualitative solubility of peptides in 0.5 N saline, pH 6.5.
The test system of series [3] is ozone-induced neutrophil migration. Nature of the series: Mouse model of ozone-induced COPD: neutrophil migration, IL-6, KC, IFNγ in BAL fluid. The following applies: for Concentration of IFNγ in BAL fluid / Concentration of KC in BAL fluid / Concentration of IL-6 in BAL fluid: 25 μL 1.0 mM peptide intratracheal 30 min before 2 h ozone; for Concentration of IFNγ in BAL fluid: PBS+ozone 8.6, forced air 5.0; for Concentration of KC in BAL fluid: PBS+ozone 466.6, forced air 36.3; for Concentration of IL-6 in BAL fluid: PBS+ozone 1041.3, forced air 43.2. The class given is in vivo, mice. The protocol:
Ten-week-old Balb/C female mice were obtained from Charles River laboratories and housed under NIH guidelines in groups of 5 per cage. The animals received standard rodent diet and filtered water ad libitum. Three treatment groups of mice, 5 animals in each group, were each anesthetized by intraperitoneal injection of Ketamine (100 mg/kg) and Xylazine (20 mg/kg) and then pretreated by intratracheal administration with 25 μL of either PBS alone, or a solution of 1.0 mM MANS peptide in PBS, or a solution of a 1.0 mM of an acetylated MANS-fragment-peptide Ac-[…] designated as acetylated SEQ ID NO: 106 in PBS. After 30 minutes, the animals were then placed in the appropriate custom-made chamber for ozone or forced air exposures. The animals were exposed to ozone for 2 hours (at ozone concentrations of 1-10 ppm by a slightly modified method described by Haddad et al, 1995. (Haddad E-B, Salmon M, Sun J, Liu S, Das A, Adcock I, Barnes P J, and Chung K F, FEBS Letters, 363:285-288, 1995). The ozone was generated using an ozone generator apparatus model OL80F/B from OzoneLab, Burton, British Columbia, Canada. Ozone concentration was continuously monitored using a Teledyne Photometric 03 Analyzer (model 400E, Teledyne Instruments, City of Industry, CA). Two additional groups of mice, each without any pretreatment, were either exposed to ozone under the same conditions or exposed to forced air under conditions similar to the ozone treatment group but absent ozone. After exposure, the animals were sacrificed by exsanguination and the lungs were serially lavaged 2 times with 1.0 mL aliquots of PBS. The collected bronchoalveolar lavage (BAL) fluid was centrifuged to remove the cells for subsequent counting and differential analysis. Recovered lavage fluid was used for protein and additional analysis of IL-6, IFNγ, and KC (murine IL-8 analog) by ELISA assay (assay kits obtained from R&D Systems, Minneapolis, MN).
The percent inhibition of neutrophil migration into the BAL fluid as a function of treatment groups and relative to a control group treated with PBS alone are provided in the table.

The mark [4] stands for this setting: after ozone exposure, vs. PBS control, listed as acetylated SEQ ID NO:106.

“And” between values parts separate entries of the source, which are not always exact repeats. Identical values can stand only once. Where a SMILES comes first, the peptide text is derived from it. Where no end group is shown, it is not given here. The star is where a group is joined. Myristoyl = CCCCCCCCCCCCCC(=O)*

Take `CCCCCCCCCCCCCC(=O)O[C@@H]1[C@@H](C)[C@@]2(O)[C@@H](C=C(CO)C[C@]3(O)C(=O)C(C)=C[C@@H]23)[C@@H]2C(C)(C)[C@]12OC(C)=O` [PMA, phorbol 12-myristate 13-acetate]: the “MPO secretion from LPS-stimulated canine neutrophils” value in series [1] (FIG. 10, PMA alone, enhanced concentration-dependently by co-stimulation with 8-Br-cGMP) is reported as “small increase”.

On to Ac-GAQFSKTAAKGEAAAERPGEAAVA, for which the solubility in series [2] is more than 250 mg/mL.

Consider `CCCCCCCCCCCCCC(=O)NCC(=O)N[C@H](C(=O)N[C@@H](C)C(=O)N1CCC[C@H]1C(=O)N[C@@H](C)C(=O)N[C@@H](C)C(=O)N[C@@H](CCC(=O)O)C(=O)NCC(=O)N[C@@H](C)C(=O)NCC(=O)N[C@@H](C)C(=O)N[C@@H](CCC(=O)O)C(=O)N[C@H](C(=O)N[C@@H](CCCCN)C(=O)N[C@@H](CCCNC(=N)N)C(=O)N[C@@H](C)C(=O)N[C@@H](CO)C(=O)N[C@@H](C)C(=O)N[C@@H](CCC(=O)O)C(=O)N[C@@H](C)C(=O)N[C@@H](CCCCN)C(=O)N[C@@H](CCC(N)=O)C(=O)N[C@@H](C)C(=O)N[C@@H](Cc1ccccc1)C(=O)O)C(C)C)[C@@H](C)O` [RNS, reference compound] (Myristoyl-GTAPAAEGAGAEVKRASAEAKQAF-OH; C-terminus assumed), for which, in series [1] (10 or 100 μM peptide), the MPO secretion entry is listed as “no effect”. Moreover, the solubility in series [2] was more than 15 mg/mL.

On to Ac-GAQFSKTAAK [Ac-GAQFSKTAAK], for which, in series [3], the “Concentration of IFNγ in BAL fluid” value is listed as “approximately 3.6 pg/mL”, the “Concentration of KC in BAL fluid” value is “approximately 159.7 pg/mL” and the “Concentration of IL-6 in BAL fluid” value is given as “approximately 130.4 pg/mL”. For the same compound, the “effect on interferon-γ levels” value in series [3] (after ozone exposure) was “little effect”. Also, in series [3] (setting [4]), the “diminished IL-6 levels / inhibition of IL-6 levels in BAL fluid” value is 91.3%±15% and ~91%; the “diminished KC concentrations / inhibition of KC levels in BAL fluid” value is 71.3%±10% and ~71%. The “reduced neutrophil cell infiltration in the BAL fluid after ozone exposure” value in series [3] (vs. PBS control) was 81%±10%. The compound also registered a solubility in series [2] of more than 100 mg/mL.

Take `CCCCCCCCCCCCCC(=O)NCC(=O)N[C@@H](C)C(=O)N[C@@H](CCC(N)=O)C(=O)N[C@@H](Cc1ccccc1)C(=O)N[C@@H](CO)C(=O)N[C@@H](CCCCN)C(=O)N[C@H](C(=O)N[C@@H](C)C(=O)N[C@@H](C)C(=O)N[C@@H](CCCCN)C(=O)NCC(=O)N[C@@H](CCC(=O)O)C(=O)N[C@@H](C)C(=O)N[C@@H](C)C(=O)N[C@@H](C)C(=O)N[C@@H](CCC(=O)O)C(=O)N[C@@H](CCCNC(=N)N)C(=O)N1CCC[C@H]1C(=O)NCC(=O)N[C@@H](CCC(=O)O)C(=O)N[C@@H](C)C(=O)N[C@@H](C)C(=O)N[C@H](C(=O)N[C@@H](C)C(=O)O)C(C)C)[C@@H](C)O` [MANS] (Myristoyl-GAQFSKTAAKGEAAAERPGEAAVA-OH; C-terminus assumed): in series [3], the “Concentration of IFNγ in BAL fluid” value is “approximately 7.4 pg/mL”, the “Concentration of KC in BAL fluid” value is listed as “approximately 183.6 pg/mL” and the “Concentration of IL-6 in BAL fluid” value was “approximately 364.5 pg/mL”. Besides, the “% Inhibition of neutrophil migration into BAL fluid” value in series [3] (Balb/C mice, intratracheal pretreatment with 25 μL of 1.0 mM peptide in PBS 30 minutes before 2 hours ozone exposure, relative to control group treated with PBS alone) is recorded as 93.0%. Besides, the “effect on interferon-γ levels” value in series [3] (after ozone exposure) is reported as “little effect”. In addition, the “reduced neutrophil cell infiltration in the BAL fluid after ozone exposure” value in series [3] (vs. PBS control) is given as 93%±10%. Moreover, in series [1] (10 μM peptide), the MPO secretion result is listed as “slight decrease”. The MPO secretion result in series [1] (100 (unit not given) peptide) is listed as “decreased secretion of MPO to control levels”.

One may read the solubility as the concentration that dissolves in the medium under given conditions. Low values mean a poorly soluble substance, high ones a readily soluble substance.
